Consider 13 molecules from patent US4267180A, “Novel antibacterial amide compounds and process means for producing the same” (Warner-Lambert Company, priority 1980, dated 1981).

Common to all, as to assay: Minimal Inhibitory Concentration, in vitro
Common to all, as to type: cell-based
Holding throughout (parameters): unit not given here

Assay [1] has as its system Pseudomonas Aeruginosa UI-18. The source says:
(§1) The compounds of the invention are new chemical compounds that are useful as pharmacological agents and especially as broad spectrum antibacterial agents. They are active in vitro against strains of both gram-positive and gram-negative bacteria.
(§2) Minimal Inhibitory Concentration

The test system of assay [2] is Enterobacter Cloacae IMM-11.
Text: as §1, §2

Assay [3] has as its system Proteus Vulgaris 1810.
Text: as §1, §2

Assay [4] has as its system Staph Aureus UC-76.
Text: as §1, §2

The test system of assay [5] is Pseudomonas Aeruginosa #28.
Text: as §1, §2

Assay [6] deals with Serratia Marcescens IMM-16.
Text: as §1, §2

Assay [7] deals with Klebsiella Pneumoniae MGH-2.
Text: as §1, §2

“N-[2-[4-(N-Acetyl-DL-glutaminylamino)phenyl]-4-hydroxy-5-pyrimidinylcarbonyl]amoxicillin [N-Acetyl-L-Glutaminyl]”: the “Minimal Inhibitory Concentration” value in assay [1] is listed as 3.1; in assay [2], 12.5; in assay [3], 0.8; in assay [4], 3.1; in assay [5], 3.1; in assay [6], 25. In assay [7], the “Minimal Inhibitory Concentration” value is recorded as greater than 50.
Turning to `CC(=O)NC(C)(C)C(=O)Nc1ccc(-c2ncc(C(=O)N[C@@H](C(=O)N[C@@H]3C(=O)N4[C@@H]3SC(C)(C)[C@@H]4C(=O)O)c3ccc(O)cc3)c(O)n2)cc1` [N-Acetylamino Isobutyryl, N-[2-[4-(alpha-Acetamidoisobutyrylamino)phenyl]-4-hydroxy-5-pyrimidinylcarbonyl]amoxicillin], the “Minimal Inhibitory Concentration” value amounted to 0.8 in assay [1]; 6.3 in assay [2]; 0.4 in assay [3]; 1.6 in assay [4]; 0.8 in assay [5]; 12.5 in assay [6]. Further, the “Minimal Inhibitory Concentration” value in assay [7] is reported as greater than 50.
For the molecule `CC1(C)S[C@@H]2[C@H](NC(=O)[C@H](NC(=O)c3cnc(-c4ccc(NC(=O)CNC(N)=O)cc4)nc3O)c3ccc(O)cc3)C(=O)N2[C@H]1C(=O)O` [N-Carbamoyl Glycyl, N-[2-[4-(N-Carbamoylglycylamino)phenyl]-4-hydroxy-5-pyrimidinylcarbonyl]amoxicillin], the “Minimal Inhibitory Concentration” value stood at 1.6 in assay [1]; 25 in assay [2]; 3.1 in assay [3]; 0.8 in assay [4]; 0.8 in assay [5]; 25 in assay [6]. Besides, in assay [7], the “Minimal Inhibitory Concentration” value is recorded as 50.
As for `CC(=O)NC(C)C(=O)Nc1ccc(-c2ncc(C(=O)N[C@@H](C(=O)N[C@@H]3C(=O)N4[C@@H]3SC(C)(C)[C@@H]4C(=O)O)c3ccc(O)cc3)c(O)n2)cc1` (mixture of isomers) [N-Acetyl-DL-Alanyl, N-[2-[4-(N-Acetyl-DL-alanylamino)phenyl]-4-hydroxy-5-pyrimidinyl-carbonyl]amoxicillin], the “Minimal Inhibitory Concentration” value in assay [1] was determined as 1.6; in assay [2] it was 6.3; in assay [3], 0.8; in assay [4], 0.2; in assay [5], 1.6; in assay [6], 6.3. Moreover, the “Minimal Inhibitory Concentration” value in assay [7] was found to be 25.
Regarding `CC(=O)NCCCCC(NC(C)=O)C(=O)Nc1ccc(-c2ncc(C(=O)N[C@@H](C(=O)N[C@@H]3C(=O)N4[C@@H]3SC(C)(C)[C@@H]4C(=O)O)c3ccc(O)cc3)c(O)n2)cc1` (mixture of isomers) [N,N'-Diacetyl-DL-Lysyl, N-[2-[4-(N,N'-Diacetyl-DL-lysylamino)phenyl]-4-hydroxy-5-pyrimidinylcarbonyl]amoxicillin], the “Minimal Inhibitory Concentration” value in assay [1] was determined as 3.1; in assay [2] it was 25; in assay [3] it was 6.3; in assay [4], 1.6; in assay [5], 1.6; in assay [6], 50. Also, in assay [7], the “Minimal Inhibitory Concentration” value is greater than 50.
Turning to `CC(=O)NC(C(=O)Nc1ccc(-c2ncc(C(=O)N[C@@H](C(=O)N[C@@H]3C(=O)N4[C@@H]3SC(C)(C)[C@@H]4C(=O)O)c3ccc(O)cc3)c(O)n2)cc1)C(C)C` (mixture of isomers) [N-Acetyl-DL-Valyl, N-[2-[4-(N-Acetyl-DL-valylamino)phenyl]-4-hydroxy-5-pyrimidinylcarbonyl]amoxicillin], the “Minimal Inhibitory Concentration” value in assay [1] amounted to 1.6; in assay [2], 25; in assay [3] it was 3.1; in assay [4], 3.1; in assay [5], 1.6; in assay [6], 25. Further, in assay [7], the “Minimal Inhibitory Concentration” value is greater than 50.
Take `CC(=O)N1CC(O)C[C@H]1C(=O)Nc1ccc(-c2ncc(C(=O)N[C@@H](C(=O)N[C@@H]3C(=O)N4[C@@H]3SC(C)(C)[C@@H]4C(=O)O)c3ccc(O)cc3)c(O)n2)cc1` (stereo partly drawn) [N-Acetyl-L-Hydroxyprolyl, N-[2-[4-(N-Acetyl-L-hydroxyprolylamino)phenyl]-4-hydroxy-5-pyrimidinylcarbonyl]amoxicillin]: the “Minimal Inhibitory Concentration” value came to 1.6 in assay [1]; 12.5 in assay [2]; 3.1 in assay [3]; 0.8 in assay [4]; 1.6 in assay [5]; 50 in assay [6]. Moreover, the “Minimal Inhibitory Concentration” value in assay [7] came out at 50.
Take `CC1(C)S[C@@H]2[C@H](NC(=O)[C@H](NC(=O)c3cnc(-c4ccc(NC(=O)[C@@H]5CCC(=O)N5)cc4)nc3O)c3ccc(O)cc3)C(=O)N2[C@H]1C(=O)O` [5-Oxo-L-Prolyl, N-[2-[4-((5-oxo-L-prolyl)amino)phenyl]-4-hydroxy-5-pyrimidinylcarbonyl]amoxicillin]: the “Minimal Inhibitory Concentration” value in assay [1] is 1.6; in assay [2] it was 6.3; in assay [3], 0.8; in assay [4], 0.8; in assay [5], 0.8; in assay [6] it was 12.5. The “Minimal Inhibitory Concentration” value in assay [7] is on record as 50.
For the molecule `CSCCC(NC(C)=O)C(=O)Nc1ccc(-c2ncc(C(=O)N[C@@H](C(=O)N[C@@H]3C(=O)N4[C@@H]3SC(C)(C)[C@@H]4C(=O)O)c3ccc(O)cc3)c(O)n2)cc1` (mixture of isomers) [N-Acetyl-DL-Methionyl, N-[2-[4-(N-acetyl-DL-methionylamino)phenyl]-4-hydroxy-5-pyrimidinylcarbonyl]amoxicillin], the “Minimal Inhibitory Concentration” value in assay [1] is on record as 1.6; in assay [2] it was 12.5; in assay [3], 3.1; in assay [4], 1.6; in assay [5], 1.6; in assay [6], 12.5. The “Minimal Inhibitory Concentration” value in assay [7] is recorded as 50.
Take `CC(=O)N[C@@H](C)C(=O)Nc1ccc(-c2ncc(C(=O)N[C@@H](C(=O)N[C@@H]3C(=O)N4[C@@H]3SC(C)(C)[C@@H]4C(=O)O)c3ccc(O)cc3)c(O)n2)cc1` [N-Acetyl-L-Alanyl, N-[2-[4-(N-acetyl-L-alanylamino)phenyl]-4-hydroxy-5-pyrimidinylcarbonyl]amoxicillin]: the “Minimal Inhibitory Concentration” value in assay [1] is 0.8; in assay [2], 6.3; in assay [3], 0.8; in assay [4] it was 0.4; in assay [5], 1.6; in assay [6] it was 12.5. In addition, the “Minimal Inhibitory Concentration” value in assay [7] is recorded as 50.
`CC(=O)N[C@@H](Cc1ccc(O)cc1)C(=O)Nc1ccc(-c2ncc(C(=O)N[C@@H](C(=O)N[C@@H]3C(=O)N4[C@@H]3SC(C)(C)[C@@H]4C(=O)O)c3ccc(O)cc3)c(O)n2)cc1` [N-Acetyl-L-Tyrosyl, N-[2-[4-(N-Acetyl-L-tyrosylamino)phenyl]-4-hydroxy-5-pyrimidinylcarbonyl]amoxicillin]: the “Minimal Inhibitory Concentration” value in assay [1] is on record as 3.1; in assay [2], 12.5; in assay [3], 3.1; in assay [4], 1.6; in assay [5], 1.6; in assay [6], 12.5. Also, the “Minimal Inhibitory Concentration” value in assay [7] is 50.
`CCC(=O)N[C@@H](C)C(=O)Nc1ccc(-c2ncc(C(=O)N[C@@H](C(=O)N[C@@H]3C(=O)N4[C@@H]3SC(C)(C)[C@@H]4C(=O)O)c3ccc(O)cc3)c(O)n2)cc1` [N-Propionyl-L-Alanyl, N-[2-[4-(N-Propionyl-L-alanylamino)phenyl]-4-hydroxy-5-pyrimidinylcarbonyl]amoxicillin]: the “Minimal Inhibitory Concentration” value came out at 0.8 in assay [1]; 3.1 in assay [2]; 3.1 in assay [3]; 0.8 in assay [4]; 1.6 in assay [5]; 12.5 in assay [6]. In assay [7], the “Minimal Inhibitory Concentration” value is 50.
As for `CC1(C)S[C@@H]2[C@H](NC(=O)[C@H](NC(=O)c3cnc(-c4ccc(NC(=O)CN5CCCC5=O)cc4)nc3O)c3ccc(O)cc3)C(=O)N2[C@H]1C(=O)O` [(2-Oxo-1-pyrrolidinyl)acetyl, N-[2-[4-[(2-Oxo-1-pyrrolidinyl)acetylamino]phenyl]-4-hydroxy-5-pyrimidinylcarbonyl]amoxicillin], the “Minimal Inhibitory Concentration” value in assay [1] came out at 3.1; in assay [2], 12.5; in assay [3] it was 1.6; in assay [4], 1.6; in assay [5], 1.6; in assay [6], 25. The “Minimal Inhibitory Concentration” value in assay [7] turned out to be 25.
